According to patent US20190276399A1, “POLYMORPH OF NINTEDANIB” (Olon S.P.A., priority 2016, published 2019):

Test: solubility in organic solvents and in water
Format: physicochemical
Details: in various organic solvents and in water; compared with nintedanib ethanesulphonate hemihydrate form known from WO 2004/013099

For `COC(=O)c1ccc2c(c1)NC(=O)/C2=C(\Nc1ccc(N(C)C(=O)CN2CCN(C)CC2)cc1)c1ccccc1` [methyl-(3Z)-3-{[(4-{methyl[(4-methylpiperazin-1-yl)acetyl]amino}phenyl)amino](phenyl)methylidene}-2-oxo-2,3-dihydro-1H-indole-6-carboxylate], the solubility was “better solubility in various organic solvents and in water”.
